Values quoted from earlier work in patent US6022558A, “Transdermal preparations of oxicams” (priority 1997, dated 2000).

Columns and labels:
[1] = rats and rabbits
[2] = oral administration
[3] = single or multiple doses in patients

Compound: CN1C(C(=O)Nc2ccccn2)=C(O)c2ccccc2S1(=O)=O [piroxicam, 4-hydroxyl-2-methyl-N-(2-pyridyl)-2H-1,2-benzo-thiazine-3-carboxamide-1,1-dioxide]
- Oral absorption [1]: almost completely absorbed
- Second plasma maximum [2]: shows a second maximum plasma concentration due to hepatic and intestinal recycling
- Cmax and AUC dependence on dose [3]: proportional to the dose administered
- Pharmacokinetic linearity [3]: possessed a linear pharmacokinetic property
